This is an account of results in patent EP1481666A1, “A composition for re-establishment of the vaginal ecosystem” (ROTTAPHARM S.R.L., priority 2003, dated 2004).

The structures appear in SMILES notation.

In the assay the test system is Lactobacillus acidophilus ATCC 314. The experiment in a line: Test 1: comparison between nutrient substrates (use of substrate added to MRS broth base by Lactobacillus). The format is cell-based, Lactobacillus acidophilus ATCC 314 (human origin). To be noted: for Lactic acid (%): HPLC; for Lactic acid (%) / D.O. / pH: 37°C, 24 hours; for D.O.: optical density of the culture; for growth and production of lactic acid: concentrations from 0.5 to 2.0%; for pH: starting pH 5.7±0.2. The text has this:
Since the Lactobacilli control the vaginal pH by means of the production of lactic acid it appeared to be useful to verify, both directly and indirectly, their capacity to utilise the various substrates proposed for the production of lactic acid and consequently their utility in the formulation of the composition.
• Lactobacillus acidophilus ATCC 314 (human origin) • Lactobacillus acidophilus wt (from vaginal swab)
• MRS broth (Lactobacillus broth according to De Man, Rogose) Merck • MRS broth base (without D(+)-glucose) • Series of MRS broth base media to which maltodextrins were added in percentages lying between 0.1 and 5% • Series of MRS broth base media to which glycogen was added in quantities lying between 0.5 and 2% • Series of MRS broth base media to which glucose was added in quantities lying between 0.1 and 2% • Series of MRS broth base media to which lactose was added in quantities lying between 0.5 and 2% Note: the pH of the media was always 5.7±0.2.
After having prepared fresh cultures of Lactobacilli in agar, an inoculation into five ml of MRS broth was incubated at 37°C for 24 hours. Aliquotes were prepared from 60 ml of the previously described media and in each of these were inoculated 600 µl of the culture in agar, with subsequent incubation at 37°C for 24 hours. As negative control aliquotes of 3 ml of the above-described media without inoculation of Lactobacilli were incubated. As positive control Merck MRS broth was utilised.
After 24 hours of incubation the optical density of the cultures was measured, the pH of the media was determined after centrifugation and filtration of the supernatant with a 0.45µ filter. The lactic acid present in the culture was also quantified by the HPLC method utilising as a control a laboratory standard of the same. These evaluation parameters have the following significance: • An increase in optical density confirms the growth of Lactobacilli; • Reduction in pH indicates the formation of lactic acid; • The quantitative determination of the lactic acid measures the efficiency of the use of the nutrient substrate by the Lactobacilli.

Setting [1] is: result in words, concentration of 0.1%.
Setting [2] is: substrate 0.5 % in MRS broth base.
Setting [3] is: substrate 1.0 % in MRS broth base.
The mark [4] stands for this setting: substrate 2.0 % in MRS broth base.

As to `OC[C@H]1OC(O)[C@H](O)[C@@H](O)[C@@H]1O` (stereo partly shown) [GLU, Glucose], the “Lactic acid (%)” value is, setting by setting: (substrate 0.1 %) 0.17%; (substrate 0.5 %) 0.90%; (substrate 1.0 %) 1.80%; (substrate 2.0 %) 2.43%. The D.O. reads like this: (substrate 0.1 %) 0.665; (substrate 0.5 %) 1.540; (substrate 1.0 %) 2.593; (substrate 2.0 %) 2.540. Under setting [1], the “utilised for the growth of Lactobacillus” value was “significant”. For the same molecule, under setting [1], the “utilised for the production of lactic acid” value was “hardly utilised”. Besides, the “growth and production of lactic acid” value (result in words) was “utilised in a useful and dose-dependent manner”. The pH turned out to be 5.56 (substrate 0.1 % in MRS broth base), 4.74 under setting [2], 4.33 under setting [3] and 4.57 under setting [4].
Consider `OC[C@H]1O[C@@H](O[C@H]2[C@H](O)[C@@H](O)C(O)O[C@@H]2CO)[C@H](O)[C@@H](O)[C@H]1O` (stereo partly shown) [LA, Lactose], for which the “Lactic acid (%)” value reads like this: (substrate 0.5 %) less than 0.10%; (substrate 1.0 %) less than 0.10%; (substrate 2.0 %) less than 0.10%. In addition, the D.O. reads like this: (substrate 0.5 %) 0.218; (substrate 1.0 %) 0.221; (substrate 2.0 %) 0.179. Moreover, where the note is “result in words”, the “growth and production of lactic acid” value is given as “rather poor”. Also, the pH amounted to 5.88 under setting [2], 5.91 under setting [3] and 5.94 under setting [4].
